Positions count from the first letter of the chain named. Several values for one entry are separate records, joined by “and”; a condition that tells them apart may be missing. Identical values can stand only once. Like-named read-outs stand apart in the source and are kept apart here.
Columns and labels:
[1] = biological target: T1, 5-HT3A receptors (Mus musculus, UniProt P23979); details: discussion; compound not tested in this paper; no reference given; cited from earlier work
T1 construct: expressed in transfected cells; host or cells: Xenopus laevis oocytes injected with cRNA (pGEMHE)
T1 sequence (P23979 24-489): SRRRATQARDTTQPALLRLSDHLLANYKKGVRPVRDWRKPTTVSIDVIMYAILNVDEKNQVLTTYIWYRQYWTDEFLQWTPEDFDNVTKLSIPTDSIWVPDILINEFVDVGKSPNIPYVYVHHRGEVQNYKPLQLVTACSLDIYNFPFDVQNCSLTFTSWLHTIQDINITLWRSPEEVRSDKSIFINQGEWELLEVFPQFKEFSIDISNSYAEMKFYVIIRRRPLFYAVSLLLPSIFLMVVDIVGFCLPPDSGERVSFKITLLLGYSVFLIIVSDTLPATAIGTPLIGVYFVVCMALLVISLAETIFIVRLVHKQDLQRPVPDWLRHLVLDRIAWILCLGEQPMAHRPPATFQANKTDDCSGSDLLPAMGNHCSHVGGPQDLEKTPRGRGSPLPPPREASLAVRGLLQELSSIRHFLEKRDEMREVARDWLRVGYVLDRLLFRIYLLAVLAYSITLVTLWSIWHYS

[2] = biological target: T1, 5-HT3A receptors; assay: Agonist-induced currents in Xenopus oocytes expressing 5-HT3A receptors (OpusXpress electrophysiology); format: cell-based; details: for agonist character: 5-HT3A receptors; for Relative efficacy Rmax = Imax drug / Imax 5-HT: maximal concentration; for EC50: holding potential -60 mV; for EC50 relative to Ki: EC50 fold higher than Ki; for Rmax, approximate summary value: discussion, stated for 5-HT3 receptors (5-HT3A and 5-HT3AB) without distinction
Description: (§1) Harvested stage V–VI Xenopus oocytes were washed in six changes of ND96 (96 mM NaCl, 2 mM KCl, 1 mM MgCl2, 1.8 mM CaCl2, 5 mM HEPES, pH 7.5), de-folliculated in 1.5 mg ml^− 1 collagenase Type 1A for approximately 2 h. Enzyme treatment was terminated by washing in six changes of ND96 and oocytes were stored in ND96 containing 2.5 mM sodium pyruvate, […] and 0.7 mM theophylline.
(§2) Mouse 5-HT3A (accession number: AY605711) or 5-HT3B (accession number: NM_020274, kindly provided by Ewen Kirkness) subunit cDNAs were cloned into pGEMHE for oocyte expression ([Liman et al., 1992]). cRNA was in vitro transcribed from linearised (NheI) plasmid cDNA template using the mMessage mMachine T7 kit (Ambion, Austin, Texas, USA). Stage V and VI oocytes were injected with 50 ng–100 ng cRNA, and recorded from 1–4 days post-injection. For expression in HEK 293 cells, 5-HT3 receptor subunit cDNAs were cloned into pcDNA3.1 (Invitrogen Ltd., Paisley, UK.). Mutagenesis reactions were performed using the Kunkel method and confirmed by DNA sequencing. Cells were transfected using calcium phosphate precipitation at 80–90% confluency ([Jordan et al., 1996]). Following transfection cells were incubated for 3–4 days before assay.
(§3) Agonist-induced currents were recorded at 22–25 °C from individual oocytes using the OpusXpress system (Molecular Devices Axon Instruments, Union City, CA). […] The holding potential was − 60 mV.

[3] = biological target: T1, 5-HT3A receptors; assay: [3H]granisetron binding to membranes of transfected HEK 293 cells, 5-HT3A receptors; details: for Ki relative to the Ki for 5-HT: 5-HT3A receptors, fold greater than 5-HT; for Ki: WT 5-HT3A receptors, HEK 293 membranes, 0.5 nM [3H]granisetron, 4 °C
Description: as §2
(§4) This was undertaken in HEK 293 cells which provide an established and robust method of studying ligand binding. Methods were as previously described ([Lummis et al., 1993]), with minor modifications. Briefly, transfected HEK 293 cells were washed twice with phosphate buffered saline (PBS) at room temperature and scraped into 1 ml of ice-cold HEPES buffer (10 mM, pH 7.4) containing the following proteinase inhibitors (PI): 1 mM EDTA, 50 μg ml^− 1 soybean trypsin inhibitor, 50 μg/ml bacitracin and 0.1 mM phenylmethylsulphonyl fluoride. […] Competition binding was performed using ligand concentrations from 0.1 μM–10 mM. Reactions were incubated for at least 1 h at 4 °C and terminated by vacuum filtration using a Brandel cell harvester onto GF/B filters pre-soaked in 0.3% polyethyleneimine. Radioactivity was determined by scintillation counting using a Beckman LS6000SC (Fullerton, California, USA). Competition binding data were analyzed by iterative curve fitting (GraphPad Prism v3.02, GraphPad Software, San Diego, California, USA), according to the equation: y=Bmin+Bmax−Bmin/1+10^[L]−logIC50 where Bmin is the lowest total binding, Bmax is the maximum specific binding at equilibrium, [L] is the concentration of competing ligand and IC50 is the concentration of competing ligand that blocks half of the specific bound radioligand. Ki values were estimated from IC50 values using the Cheng–Prusoff equation: Ki=IC50/1+[L]/Kd
(§5) where Ki is the equilibrium dissociation constant for binding of the unlabeled antagonist, [L] is the concentration of radioligand and Kd is the equilibrium dissociation constant of the radioligand.

[4] = biological target: T2, 5-HT3AB receptors (Mus musculus, UniProt P23979+Q9JHJ5); assay: [3H]granisetron binding to membranes of transfected HEK 293 cells, 5-HT3AB receptors
T2 construct: expressed in transfected cells; host or cells: Xenopus laevis oocytes injected with cRNA (pGEMHE)
T2 sequence (P23979 24-489): T1 sequence (P23979 24-489)
T2 sequence (Q9JHJ5 22-437): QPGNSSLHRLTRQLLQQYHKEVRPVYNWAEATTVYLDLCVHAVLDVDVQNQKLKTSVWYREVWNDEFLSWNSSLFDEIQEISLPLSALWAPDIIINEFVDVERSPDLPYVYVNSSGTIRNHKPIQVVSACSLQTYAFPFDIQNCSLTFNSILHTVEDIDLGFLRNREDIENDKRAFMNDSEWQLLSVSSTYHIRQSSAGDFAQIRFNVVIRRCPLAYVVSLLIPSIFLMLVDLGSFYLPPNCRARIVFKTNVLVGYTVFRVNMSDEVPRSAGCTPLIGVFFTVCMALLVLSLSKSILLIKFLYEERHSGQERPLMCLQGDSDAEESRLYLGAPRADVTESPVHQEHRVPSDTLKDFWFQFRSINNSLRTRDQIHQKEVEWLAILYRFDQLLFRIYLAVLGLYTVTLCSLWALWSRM
Description: as §2, §4, §5

[5] = biological target: T2, 5-HT3AB receptors; assay: Agonist-induced currents in Xenopus oocytes expressing 5-HT3AB receptors (OpusXpress electrophysiology); format: cell-based; details: for agonist character: 5-HT3AB receptors; for Relative efficacy Rmax = Imax drug / Imax 5-HT: maximal concentration; for EC50: holding potential -60 mV
Description: as §1, §2, §3

[6] = biological target: T3, E236A mutant 5-HT3A receptors (Mus musculus, UniProt P23979, E236A); assay: [3H]granisetron competition binding, E236A mutant 5-HT3A receptors
T3 construct: expressed in transfected cells; host or cells: HEK 293 cells (pcDNA3.1); Kunkel mutagenesis
T3 sequence (P23979 24-489 E236A): T1 sequence (P23979 24-489) with E213A
Description: as §2, with “Cells were transfected using calcium phosphate precipitation at 80–90% confluency ([Jordan et al., 1996]). Following transfection cells were incubated for 3–4 days before assay.” left out
(§6) This was undertaken in HEK 293 cells which provide an established and robust method of studying ligand binding. […] Radioactivity was determined by scintillation counting using a Beckman LS6000SC (Fullerton, California, USA). Competition binding data were analyzed by iterative curve fitting (GraphPad Prism v3.02, GraphPad Software, San Diego, California, USA), according to the equation: y=Bmin+Bmax−Bmin/1+10^[L]−logIC50 where Bmin is the lowest total binding, Bmax is the maximum specific binding at equilibrium, [L] is the concentration of competing ligand and IC50 is the concentration of competing ligand that blocks half of the specific bound radioligand. […]

[7] = biological target: T4, N128A mutant 5-HT3A receptors (Mus musculus, UniProt P23979, N128A); assay: [3H]granisetron competition binding, N128A mutant 5-HT3A receptors
T4 construct: expressed in transfected cells; host or cells: HEK 293 cells (pcDNA3.1); Kunkel mutagenesis
T4 sequence (P23979 24-489 N128A): T1 sequence (P23979 24-489) with N105A
Description: as §2, with “Cells were transfected using calcium phosphate precipitation at 80–90% confluency ([Jordan et al., 1996]). Following transfection cells were incubated for 3–4 days before assay.” left out
as §6

[8] = 5-HT3A receptors in Xenopus oocytes
[9] = EC50, 5-HT3A receptors in Xenopus oocytes
[10] = Ki, displacement of [3H]granisetron binding
[11] = 5-HT3AB receptors in Xenopus oocytes
[12] = 5-HT3AB receptors in Xenopus oocytes, read-out: EC50
[13] = read-out: Ki, displacement of [3H]granisetron binding
[14] = 5-HT3AB receptors, HEK 293 membranes, 0.5 nM [3H]granisetron, 4 °C, read-out: Ki, displacement of [3H]granisetron binding

Row | SMILES | agonist character [2] | Relative efficacy Rmax = Imax drug / Imax 5-HT [2, 8] | EC50 [2, 9] | Ki relative to the Ki for 5-HT [3] | Ki [3, 10] | Ki [4] | agonist character [5] | nH (Hill slope) [5, 11] | Relative efficacy Rmax = Imax drug / Imax 5-HT [5, 11] | nH (Hill slope) [2, 8] | Rmax, approximate summary value [2] | also measured
1 | Cc1[nH]c2ccc(O)cc2c1CCN [2-methyl-5-HT] | – | – | – | – | – | – | – | – | – | – | – | Rmax, approximate value [1]: ~0.2
2 | NCCc1c[nH]c2ccc(Cl)cc12 [5-ClT, 5-chlorotryptamine] | very weak partial agonist | 0.0037 | 8.1 µM and 8 µM | ~10 fold | 2.7 ± 0.7 µM | 3.1 ± 1.1 µM | – | – | – | – | – | EC50 relative to Ki [2]: less than 5 fold
3 | NCCc1c[nH]c2ccc(F)cc12 [5-FT, 5-fluorotryptamine] | partial agonist | 0.64 and 0.64 ± 0.03 | 16 µM | ~10 fold | 0.8 µM and 0.83 µM | 1.8 ± 0.4 µM | partial agonist | 1.4 and 1.4 ± 0.3 | 0.45 and 0.45 ± 0.04 | 2.4 and 2.4 ± 0.5 | ~0.5 | EC50 ([5]; EC50, 5-HT3AB receptors in Xenopus oocytes): 27 µM; Ki [6]: 1.62 ± 0.41 µM; Ki [7]: 2.43 ± 0.47 µM
4 | NCCc1c[nH]c2ccc(O)cc12 [5-HT] | – | – | – | – | – | – | – | 1.4 and 1.4 ± 0.4 | – | – | – | –
5 | COc1ccc2[nH]cc(CCN)c2c1 [5-MeOT, 5-methoxytryptamine] | – | – | – | ~300 fold | 34.9 ± 3 µM | 21.7 ± 2.1 µM | – | – | – | – | – | activation of 5-HT3 receptors ([2]; concentrations up to 10 mM, examined in 5-HT3A receptors): unable to activate
6 | Cc1ccc2[nH]cc(CCN)c2c1 [5-MeT, 5-methyltryptamine] | very weak partial agonist | 0.0023 | 60 ± 3 µM | ~100 fold | – | 7.7 ± 1.1 µM | – | – | – | – | – | EC50 relative to Ki [2]: less than 5 fold
7 | N=C(N)NC(=N)Nc1cccc(Cl)c1 [mCPBG, m-chlorophenylbiguanide] | partial agonist | 0.74 ± 0.07 | – | – | – | – | full agonist | 1.6 and 1.6 ± 0.4 | 0.92 ± 0.09 | 2.3 and 2.3 ± 0.4 | ~0.8 | EC50 [5, 12]: 1.1 µM; EC50 ([2]; 5-HT3A receptors in Xenopus oocytes, read-out: EC50): 0.5 µM; Ki [3, 13]: 0.01 ± 0.003 µM; Ki [4, 14]: 0.012 ± 0.004 µM
8 | NCCc1c[nH]c2ccccc12 [tryptamine] | partial agonist | 0.15 | – | ~50 fold | – | – | partial agonist | 1.8 and 1.8 ± 0.5 | 0.14 ± 0.02 | 2.5 and 2.5 ± 0.5 | ~0.15 | EC50 ([5]; 5-HT3AB receptors in Xenopus oocytes, mean ± SEM, read-out: pEC50 (converted)): 60.3 µM; EC50 [5, 12]: 61 µM; EC50 ([2]; 5-HT3A receptors in Xenopus oocytes, mean ± SEM, read-out: pEC50 (converted)): 123 µM; Relative efficacy Rmax = Imax drug / Imax 5-HT ([2]; 5-HT3A receptors in Xenopus oocytes, listed as Tryptamine): 0.15 ± 0.06; EC50 relative to both 5-HT and 5-FT ([2]; EC50 fold higher than 5-HT and 5-FT, both receptor types): 10–100 fold; potency (EC50) relative to 5-HT ([2]; fold less potent / EC50 higher than 5-HT, stated for 5-HT3A and 5-HT3AB receptors together): ~100 fold; Ki [3, 13]: 4.8 ± 0.9 µM; Ki [4, 14]: 15.5 ± 3.5 µM
